Reference: patent US8618289B2 (Ambit Biosciences Corporation, priority 2008, dated 2013)

Key:
[1] = tested on: MEK1 phosphorylation in the A375 human melanoma cell line; test: cells; settings: A-375, read-out: pMEK IC50
Description: A375 cells (from American Type Culture Collection) were plated at 50,000 cells per well in DMEM (Mediatech) with 10% fetal bovine serum (Omega Scientific) into a 96 well plate and incubated overnight in a 37° C. incubator with 10% CO2. The cells were then washed with PBS and the medium replaced with 0.5% FBS for incubation overnight. […] The cells were incubated with compound or control for two hours at 37° C. The compound solution was aspirated off and the cells washed with cold PBS. […] The plate was centrifuged for 30 minutes to pellet out the cell debris. The cleared lysates were transferred to a 96-well Nunc plate and the ELISA protocol described by the manufacturer in Catalog #KHO0321 or KHO0291 was followed.

A375 cells = test: cells; settings: Homo sapiens, A-375, read-out: A375 Viability EC50
RAF kinases [2] = molecular target: RAF kinases (Homo sapiens, UniProt P04049); test: biochemical
RAF kinases [3] = molecular target: RAF kinases (Homo sapiens, UniProt P15056); test: biochemical
RAF kinases [4] = molecular target: RAF kinases (Homo sapiens, UniProt P15056, V600E); settings: read-out: BRAF V600E Kd; BRAF V600E
Sequence of RAF kinases (Homo sapiens, UniProt P15056, V600E) (P15056 whole entry V600E): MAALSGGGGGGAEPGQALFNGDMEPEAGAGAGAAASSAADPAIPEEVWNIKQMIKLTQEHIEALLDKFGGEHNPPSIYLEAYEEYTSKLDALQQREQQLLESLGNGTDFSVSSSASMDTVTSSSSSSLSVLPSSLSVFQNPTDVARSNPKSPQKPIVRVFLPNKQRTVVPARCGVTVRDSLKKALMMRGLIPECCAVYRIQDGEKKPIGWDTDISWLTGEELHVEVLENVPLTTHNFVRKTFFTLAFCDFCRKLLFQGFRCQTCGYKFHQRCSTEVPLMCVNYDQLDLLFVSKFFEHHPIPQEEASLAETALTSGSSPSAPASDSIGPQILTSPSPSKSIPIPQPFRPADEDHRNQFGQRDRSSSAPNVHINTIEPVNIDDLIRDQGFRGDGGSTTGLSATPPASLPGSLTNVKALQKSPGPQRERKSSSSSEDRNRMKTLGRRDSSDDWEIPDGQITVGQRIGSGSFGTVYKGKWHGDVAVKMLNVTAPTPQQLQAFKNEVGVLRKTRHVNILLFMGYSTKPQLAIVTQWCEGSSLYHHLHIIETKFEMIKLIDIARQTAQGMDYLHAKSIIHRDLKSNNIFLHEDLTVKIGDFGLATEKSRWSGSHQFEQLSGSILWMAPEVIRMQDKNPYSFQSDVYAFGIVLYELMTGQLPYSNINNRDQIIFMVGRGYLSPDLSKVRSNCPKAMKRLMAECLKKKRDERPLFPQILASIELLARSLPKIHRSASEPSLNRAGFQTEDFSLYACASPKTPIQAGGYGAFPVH

Sequence of RAF kinases (Homo sapiens, UniProt P04049) (P04049 whole entry): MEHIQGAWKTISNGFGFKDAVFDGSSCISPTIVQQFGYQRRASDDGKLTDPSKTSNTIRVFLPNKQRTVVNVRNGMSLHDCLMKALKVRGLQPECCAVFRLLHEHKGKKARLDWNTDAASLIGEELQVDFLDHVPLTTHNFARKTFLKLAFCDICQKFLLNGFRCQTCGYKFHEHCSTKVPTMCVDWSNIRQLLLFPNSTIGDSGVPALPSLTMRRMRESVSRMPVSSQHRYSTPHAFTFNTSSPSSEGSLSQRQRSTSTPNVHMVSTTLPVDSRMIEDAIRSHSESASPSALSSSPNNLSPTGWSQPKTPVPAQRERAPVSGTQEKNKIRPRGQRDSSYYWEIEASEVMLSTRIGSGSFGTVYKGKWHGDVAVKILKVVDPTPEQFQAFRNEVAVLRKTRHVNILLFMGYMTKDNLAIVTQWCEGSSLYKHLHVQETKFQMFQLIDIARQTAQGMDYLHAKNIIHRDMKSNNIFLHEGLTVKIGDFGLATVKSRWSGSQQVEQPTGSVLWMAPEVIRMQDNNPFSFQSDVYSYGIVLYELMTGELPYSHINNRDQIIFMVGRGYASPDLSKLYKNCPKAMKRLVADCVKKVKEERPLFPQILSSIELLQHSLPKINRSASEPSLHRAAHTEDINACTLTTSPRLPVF
Sequence of RAF kinases (Homo sapiens, UniProt P15056) (P15056 whole entry): as the sequence (P15056 whole entry V600E) above, with E600V counted along it

Kd (RAF kinases [4]) [nM]	Compound	IC50 [1] [nM]	EC50 (A375 cells) [nM]	Kd (RAF kinases [2]) [nM]	Kd (RAF kinases [3]) [nM]
	COc1cc2c(Sc3cccc(NC(=O)Nc4cc(C(C)(C)C)on4)c3)ncnc2cc1OCCN1CCN(C)CC1 [Ex 83, 1-(5-tert-butylisoxazol-3-yl)-3-(3-(6-methoxy-7-(2-(4-methylpiperazin-1-yl)ethoxy)quinazolin-4-ylthio)phenyl)urea]	< 250	> 1000	250 to 500	250 to 500
	CC(C)(C)c1cc(NC(=O)Nc2cccc(Sc3ncnc4ccc(OCCCN5CCS(=O)(=O)CC5)cc34)c2)no1 [Ex 90, 1-(5-tert-butyl-isoxazol-3-yl)-3-(3-{6-[3-(1,1-dioxo-thiomorpholin-4-yl)-propoxy]-quinazolin-4-ylsulfanyl}-phenyl)-urea]	< 250	> 1000	250 to 500	500 to 1000
	COc1cc2ncnc(Oc3cccc(NC(=O)Nc4cc(C(C)(C)C)on4)c3)c2cc1OCCN1CCS(=O)(=O)CC1 [Ex 91, 1-(5-tert-butyl-isoxazol-3-yl)-3-(3-{6-[2-(1,1-dioxo-thiomorpholin-4-yl)-ethoxy]-7-methoxy-quinazolin-4-yloxy}-phenyl)-urea]	< 250	< 250	250 to 500	250 to 500
	CC(C)(C)c1cc(NC(=O)Nc2cccc(Oc3ncnc4ccc(-c5ccc(CNCCS(C)(=O)=O)o5)cc34)c2)no1 [Ex 92, 1-(5-tert-butylisoxazol-3-yl)-3-{3-[6-(5-{[2-(methylsulfonyl)ethylamino]methyl}furan-2-yl)quinazolin-4-yloxy]phenyl}urea]	< 250	< 250	250 to 500	500 to 1000
	COc1cc2c(Oc3cccc(NC(=O)Nc4cc(C(C)(C)C)on4)c3)ncnc2cc1O [Ex 95, 1-(5-tert-butylisoxazol-3-yl)-3-(3-(7-hydroxy-6-methoxyquinazolin-4-yloxy)phenyl)urea]	< 250	< 250	250 to 500	500 to 1000
	COc1cc2c(Oc3cccc(NC(=O)Nc4cc(C(C)(C)C)on4)c3)ncnc2cc1O[C@H]1CCN(C)C1 [Ex 97, (S)-1-(5-tert-butylisoxazol-3-yl)-3-(3-(6-methoxy-7-(1-methylpyrrolidin-3-yloxy)quinazolin-4-yloxy)phenyl)urea mono acetate]	250 to 500	> 1000	500 to 1000	250 to 500
	COc1cc2c(Oc3cccc(NC(=O)Nc4cc(C(C)(C)C)on4)c3)ncnc2cc1O[C@@H]1CCN(C)C1 [Ex 99, (R)-1-(5-tert-butylisoxazol-3-yl)-3-(3-(6-methoxy-7-(1-methylpyrrolidin-3-yloxy)quinazolin-4-yloxy)phenyl)urea mono acetate]	250 to 500	> 1000	250 to 500	250 to 500
	COc1cc2ncnc(Oc3cccc(NC(=O)Nc4cc(C(C)(C)C)on4)c3)c2cc1OC[C@H](O)CN1CCN(C)CC1 [Ex 112, (R)-1-(5-tert-butylisoxazol-3-yl)-3-(3-(6-(2-hydroxy-3-(4-methylpiperazin-1-yl)propoxy)-7-methoxyquinazolin-4-yloxy)phenyl)urea]	250 to 500	500 to 1000	250 to 500	500 to 1000
	COCCOc1cc2ncnc(Oc3cccc(NC(=O)Nc4cccc(C(C)(C)C)c4)c3)c2cc1OC [Ex 119, 1-(3-tert-butylphenyl)-3-(3-(6-methoxy-7-(2-methoxyethoxy)quinazolin-4-yloxy)phenyl)urea]	250 to 500	> 1000	250 to 500	250 to 500
	COc1cc2ncnc(Oc3cccc(NC(=O)Nc4cc(C(F)(F)F)ncn4)c3)c2cc1OC [Ex 146, 1-(3-(6,7-dimethoxyquinazolin-4-yloxy)phenyl)-3-(6-(trifluoromethyl)pyrimidin-4-yl)urea]	> 1000	> 1000	250 to 500	250 to 500
	COc1cc2ncnc(Oc3cccc(NC(=O)Nc4cc(C(C)(F)F)no4)c3)c2cc1OC [Ex 152, 1-(3-(1,1-difluoroethyl)isoxazol-5-yl)-3-(3-(6,7-dimethoxyquinazolin-4-yloxy)phenyl)urea]	500 to 1000	500 to 1000	250 to 500	250 to 500
	COc1cc2ncnc(Sc3cccc(NC(=O)Nc4cc(C(C)(C)C)nn4C)c3)c2cc1OC [Ex 157, 1-(3-tert-butyl-1-methyl-1H-pyrazol-5-yl)-3-(3-(6,7-dimethoxyquinazolin-4-ylthio)phenyl)urea]	< 250	> 1000	250 to 500	500 to 1000
	COc1cc2ncnc(Sc3cccc(NC(=O)Nc4cc(C(C)(CF)CF)no4)c3)c2cc1OC [Ex 160, 1-[3-(1,3-difluoro-2-methylpropan-2-yl)isoxazol-5-yl]-3-[3-(6,7-dimethoxyquinazolin-4-ylthio)phenyl]urea]	< 250	> 1000	250 to 500	500 to 1000
	COc1cc2ncnc(Oc3cccc(NC(=O)Nc4ccc(C(C)(C)C)cc4)c3)c2cc1OC [Ex 173, 1-(4-tert-butylphenyl)-3-(3-(6,7-dimethoxyquinazolin-4-yloxy)phenyl)urea]	250 to 500	> 1000	250 to 500	500 to 1000
	COc1cc2ncnc(Oc3cccc(NC(=O)Nc4ccc(Cl)c(C(F)(F)F)c4)c3)c2cc1OC [Ex 176, 1-(4-chloro-3-(trifluoromethyl)phenyl)-3-(3-(6,7-dimethoxyquinazolin-4-yloxy)phenyl)urea]	250 to 500	> 1000	250 to 500	500 to 1000
	COc1cccc(NC(=O)Nc2cccc(Oc3ncnc4cc(OC)c(OC)cc34)c2)c1 [Ex 178, 1-(3-(6,7-dimethoxyquinazolin-4-yloxy)phenyl)-3-(3-methoxyphenyl)urea]	> 1000	> 1000	250 to 500	500 to 1000
	CCOc1cccc(NC(=O)Nc2cccc(Oc3ncnc4cc(OC)c(OC)cc34)c2)c1 [Ex 179, 1-(3-(6,7-dimethoxyquinazolin-4-yloxy)phenyl)-3-(3-ethoxyphenyl)urea]	> 1000	> 1000	250 to 500	500 to 1000
	COCCOc1cc2ncnc(Oc3cccc(NC(=O)Nc4cc(C(C)(C)C)no4)c3)c2cc1OC [Ex 202, 1-(3-tert-butylisoxazol-5-yl)-3-(3-(6-methoxy-7-(2-methoxyethoxy)quinazolin-4-yloxy)phenyl)urea]	< 250	> 1000	250 to 500	250 to 500
< 250	COCCOc1cc2ncnc(Oc3cccc(NC(=O)Nc4cc(C(C)C)no4)c3)c2cc1OC [Ex 215, 1-(3-isopropylisoxazol-5-yl)-3-(3-(6-methoxy-7-(2-methoxyethoxy)quinazolin-4-yloxy)phenyl)urea]	500 to 1000	> 1000	250 to 500	250 to 500
< 250	COCCOc1cc2ncnc(Sc3cccc(NC(=O)Nc4cc(C(C)(CF)CF)on4)c3)c2cc1OC [Ex 230, 1-[5-(1,3-difluoro-2-methylpropan-2-yl)isoxazol-3-yl]-3-{3-[6-methoxy-7-(2-methoxyethoxy)quinazolin-4-ylthio]phenyl}urea]	< 250	250 to 500	250 to 500	500 to 1000
< 250	COc1cc2ncnc(Sc3cccc(NC(=O)Nc4ccc(OC)c(C(F)(F)F)c4)c3)c2cc1OCCCN1CCS(=O)(=O)CC1 [Ex 246, 1-(4-methoxy-3-(trifluoromethyl)phenyl)-3-(3-(7-methoxy-6-(3-(4,4-dioxothiomorpholino)propoxy)quinazolin-4-ylthio)phenyl)urea]	< 250	500 to 1000	250 to 500	250 to 500
< 250	COCCOc1cc2ncnc(Sc3cccc(NC(=O)Nc4cc(C(C)(C)C)no4)c3)c2cc1OCCOC [Ex 247, 1-(3-(6,7-bis(2-methoxyethoxy)quinazolin-4-ylthio)phenyl)-3-(3-tert-butylisoxazol-5-yl)urea]	< 250	> 1000	250 to 500	250 to 500
< 250	COc1cc2ncnc(Oc3cccc(NC(=O)Nc4cc(C(C)(C)C)nn4-c4ccccc4F)c3)c2cc1OC [Ex 372, 1-(3-tert-butyl-1-(2-fluorophenyl)-1H-pyrazol-5-yl)-3-(3-(6,7-dimethoxyquinazolin-4-yloxy)phenyl)urea]	< 250		500 to 1000	500 to 1000
< 250	CCOc1cc2ncnc(Oc3cccc(NC(=O)Nc4cc(C(C)(C)C)nn4-c4ccccc4)c3)c2cc1OC [Ex 387, 1-(3-tert-butyl-1-phenyl-1H-pyrazol-5-yl)-3-(3-(7-ethoxy-6-methoxyquinazolin-4-yloxy)phenyl)urea]	< 250		500 to 1000	500 to 1000

Compound	Kd (RAF kinases [4]) [nM]	IC50 [1] [nM]	EC50 (A375 cells) [nM]	Kd (RAF kinases [2]) [nM]	Kd (RAF kinases [3]) [nM]
COCCOc1cc2ncnc(Oc3cccc(NC(=O)Nc4cc(C5CCCC5)no4)c3)c2cc1OC [Ex 207, 1-(3-cyclopentylisoxazol-5-yl)-3-(3-(6-methoxy-7-(2-methoxyethoxy)quinazolin-4-yloxy)phenyl)urea]	< 250	> 1000	> 1000	250 to 500	500 to 1000
COCCOc1cc2ncnc(Sc3cccc(NC(=O)Nc4cc(C(C)(C)F)no4)c3)c2cc1OC [Ex 234, 1-(3-(2-fluoropropan-2-yl)isoxazol-5-yl)-3-(3-(6-methoxy-7-(2-methoxyethoxy)quinazolin-4-ylthio)phenyl)urea]	< 250	< 250	> 1000	250 to 500	250 to 500
CCOc1cc2c(Oc3cccc(NC(=O)Nc4cc(C(C)(C)C)nn4-c4ccccc4)c3)ncnc2cc1OC [Ex 390, 1-(3-tert-butyl-1-phenyl-1H-pyrazol-5-yl)-3-(3-(6-ethoxy-7-methoxyquinazolin-4-yloxy)phenyl)urea]	< 250	< 250		500 to 1000	250 to 500
